Seven sequences from patent US20060057636A1 (priority 2002, published 2006) can be followed below.

One assay deals with NMRI mice. The note with it: mouse, in vivo.
Another assay has as its system Balb/C mice. The note with it: in vivo, sc.
The test system of the next assay is recombinant bovine PrP. Conditions: in vivo.

As for CGQGGTHGQWNKP [PrP peptide 1], the “titres in NMRI mice compared with Balb/C” value in the assay on NMRI mice is recorded as “the same or even higher titres”. Besides, in the assay on Balb/C mice, the “mean end-point titre, mouse no. 1” value is listed as 40.500; the “mean end-point titre, mouse no. 2” value stood at 40.500; the “mean end-point titre, mouse no. 3” value was 40.500; the “mean end-point titre, mouse no. 4” value stood at 40.500.
For CGGLGGYMLGSAMSRPLIH [PrP peptide 3], in the assay with Balb/C mice, the “mean end-point titre, mouse no. 1” value is reported as 13.5000; the “mean end-point titre, mouse no. 2” value came to 13.500; the “mean end-point titre, mouse no. 3” value is on record as 13.500; the “mean end-point titre, mouse no. 4” value is 40.500.
Regarding CTQYQRESQAYYQRG [PrP peptide 7], in the assay with Balb/C mice, the “mean end-point titre, mouse no. 1” value is 121.500; the “mean end-point titre, mouse no. 2” value is reported as 13.4500; the “mean end-point titre, mouse no. 3” value stood at 40.500; the “mean end-point titre, mouse no. 4” value is 40.500.
With CYYRPVDQYS [PrP peptide 6], the “titres in NMRI mice compared with Balb/C” value with NMRI mice is given as “the same or even higher titres”. For the same sequence, in the assay with Balb/C mice, the “mean end-point titre, mouse no. 1” value was 13.500; the “mean end-point titre, mouse no. 2” value was determined as 500; the “mean end-point titre, mouse no. 3” value came out at 13.500; the “mean end-point titre, mouse no. 4” value is reported as 1.500.
Regarding CGSDYEDRY [PrP peptide 5], the “production of high-titered, PrP-reactive antibodies” value with recombinant bovine PrP is given as “all groups except the peptide 5 group”. In the assay on Balb/C mice, the “mean end-point titre, mouse no. 1” value was 121.500; the “mean end-point titre, mouse no. 2” value is recorded as 40.500; the “mean end-point titre, mouse no. 3” value was 40.500; the “mean end-point titre, mouse no. 4” value was found to be 40.500.
For the sequence CGGRESQAYYQRGAS [PrP peptide 4], the “titres in NMRI mice compared with Balb/C” value in the assay with NMRI mice is on record as “the same or even higher titres”. In addition, in the assay with Balb/C mice, the “mean end-point titre, mouse no. 1” value was found to be 4.500; the “mean end-point titre, mouse no. 2” value came to 13.500; the “mean end-point titre, mouse no. 3” value turned out to be 13.500; the “mean end-point titre, mouse no. 4” value amounted to 40.500.
With CGQWNKPSKPKTN [PrP peptide 2], in the assay on Balb/C mice, the “mean end-point titre, mouse no. 1” value is listed as 121.500; the “mean end-point titre, mouse no. 2” value is recorded as 40.500; the “mean end-point titre, mouse no. 3” value turned out to be 13.500; the “mean end-point titre, mouse no. 4” value stood at 13.500.
